# Values quoted from earlier work, collected in US20250195551A1 (L4 BIO LLC, priority 2023, published 2025).
# Biological target: 7-aminobutyric acid A (GABAA) receptor
# Conditions: interaction with GABAA receptor in humans; cited from earlier work
substance,measurement,value
ivermectin,EC50,~920 nM
